# Measurements: ChEMBL document CHEMBL3351796, “Discovery of potent and selective sirtuin 2 (SIRT2) inhibitors using a fragment-based approach” (J Med Chem, 2014)
# Tests used:
# [1] = biological target: T1, NAD-dependent protein deacetylase sirtuin-1 (Homo sapiens) (UniProt Q96EB6); test: Inhibition of full length human SIRT1 expressed in Escherichia coli BL21 (DE3) cells at 100 uM using fluorogenic 7-amino-4-methylcoumarin (AMC)-labeled peptide by fluorescence assay
# T1 sequence (whole entry): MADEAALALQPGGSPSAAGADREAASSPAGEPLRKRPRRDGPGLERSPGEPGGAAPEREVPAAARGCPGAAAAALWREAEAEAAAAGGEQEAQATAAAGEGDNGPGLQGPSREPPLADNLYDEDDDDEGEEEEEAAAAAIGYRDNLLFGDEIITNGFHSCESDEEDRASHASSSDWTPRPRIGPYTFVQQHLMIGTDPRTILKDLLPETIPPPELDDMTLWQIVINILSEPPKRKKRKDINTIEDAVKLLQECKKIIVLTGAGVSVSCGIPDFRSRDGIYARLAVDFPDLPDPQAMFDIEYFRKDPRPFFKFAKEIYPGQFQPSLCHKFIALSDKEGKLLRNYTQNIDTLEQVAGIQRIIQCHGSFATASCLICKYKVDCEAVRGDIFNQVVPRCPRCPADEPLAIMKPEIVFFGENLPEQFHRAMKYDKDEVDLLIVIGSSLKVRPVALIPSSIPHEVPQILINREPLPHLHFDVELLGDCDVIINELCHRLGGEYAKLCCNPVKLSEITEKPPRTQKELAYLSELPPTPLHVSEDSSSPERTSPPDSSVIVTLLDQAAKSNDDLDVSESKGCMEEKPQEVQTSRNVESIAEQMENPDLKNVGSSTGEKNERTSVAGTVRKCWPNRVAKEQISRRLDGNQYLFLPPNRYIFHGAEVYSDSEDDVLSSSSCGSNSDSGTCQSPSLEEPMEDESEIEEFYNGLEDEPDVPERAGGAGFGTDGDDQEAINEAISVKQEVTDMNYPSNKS
# [2] = biological target: T2, NAD-dependent protein deacetylase sirtuin-2 (Homo sapiens) (UniProt Q8IXJ6); test: Inhibition of full length human SIRT2 expressed in Escherichia coli BL21 (DE3) cells at 100 uM using fluorogenic 7-amino-4-methylcoumarin (AMC)-labeled peptide by fluorescence assay
# T2 sequence (whole entry): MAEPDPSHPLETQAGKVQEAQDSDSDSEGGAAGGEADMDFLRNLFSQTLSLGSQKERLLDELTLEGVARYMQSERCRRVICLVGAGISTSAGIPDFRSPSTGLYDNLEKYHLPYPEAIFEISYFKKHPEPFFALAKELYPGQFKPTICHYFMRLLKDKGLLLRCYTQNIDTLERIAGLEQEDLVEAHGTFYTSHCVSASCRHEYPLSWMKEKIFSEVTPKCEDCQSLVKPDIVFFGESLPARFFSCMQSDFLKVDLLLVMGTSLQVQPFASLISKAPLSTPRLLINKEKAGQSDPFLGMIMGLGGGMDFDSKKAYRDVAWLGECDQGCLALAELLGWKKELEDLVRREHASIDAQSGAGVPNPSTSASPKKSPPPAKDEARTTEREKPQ
# [3] = biological target: T3, NAD-dependent protein deacetylase sirtuin-3, mitochondrial (Homo sapiens) (UniProt Q9NTG7); details: BL21-DE3, 100 uM
# T3 sequence (whole entry): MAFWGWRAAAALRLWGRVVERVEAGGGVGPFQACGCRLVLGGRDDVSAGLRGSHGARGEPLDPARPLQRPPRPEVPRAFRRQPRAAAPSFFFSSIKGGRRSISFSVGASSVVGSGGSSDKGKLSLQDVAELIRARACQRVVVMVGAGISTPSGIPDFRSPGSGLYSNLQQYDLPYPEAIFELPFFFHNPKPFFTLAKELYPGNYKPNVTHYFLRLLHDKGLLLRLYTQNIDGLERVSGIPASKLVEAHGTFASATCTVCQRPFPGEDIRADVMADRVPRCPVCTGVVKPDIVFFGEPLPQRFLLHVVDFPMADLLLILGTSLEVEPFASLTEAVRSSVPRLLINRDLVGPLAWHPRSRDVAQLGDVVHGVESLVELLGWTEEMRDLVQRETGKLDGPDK
# [4] = biological target: T4, NAD-dependent protein deacetylase sirtuin-1 (Homo sapiens, UniProt Q96EB6); test: biochemical; assay type: cell-based, BL21-DE3
# T4 sequence (Q96EB6 whole entry): T1 sequence (whole entry)
# Description: Inhibition of full length human SIRT1 expressed in Escherichia coli BL21 (DE3) cells using fluorogenic 7-amino-4-methylcoumarin (AMC)-labeled peptide by fluorescence assay
# [5] = biological target: T5, NAD-dependent protein deacetylase sirtuin-2 (Homo sapiens, UniProt Q8IXJ6); test: Inhibition of full length human SIRT2 expressed in Escherichia coli BL21 (DE3) cells using fluorogenic 7-amino-4-methylcoumarin (AMC)-labeled peptide by fluorescence assay
# T5 sequence (Q8IXJ6 whole entry): T2 sequence (whole entry)
# [6] = biological target: T6, NAD-dependent protein deacetylase sirtuin-3, mitochondrial (Homo sapiens, UniProt Q9NTG7); test: biochemical
# T6 sequence (Q9NTG7 whole entry): T3 sequence (whole entry)
# Description: Inhibition of catalytically active human SIRT3 (102 to 399 amino acids) expressed in Escherichia coli BL21 (DE3) cells using fluorogenic 7-amino-4-methylcoumarin (AMC)-labeled peptide by fluorescence assay
Structure (SMILES),inhibition [1] [%],inhibition [2] [%],inhibition [3] [%],IC50 [4] [µM],IC50 [5] [µM],IC50 [6] [µM]
Cc1ccc(C(=O)Nc2ccc(S(=O)(=O)O)c3ccccc23)cc1,22,17,25,,,
N#C/C(=C\c1ccc(-c2cc(Cl)ccc2Cl)o1)C(=O)Nc1cccc2ncccc12,,,,135,,
NC(=O)c1cncc(Oc2ccc3c(NC(=O)c4cccc([N+](=O)[O-])c4)cccc3c2)c1,,,,11.7,0.811,
NC(=O)c1ccc(Sc2ccc3ccccc3c2)nc1,31,73,42,,,
O=C(Nc1cccc2cccc(S(=O)(=O)O)c12)c1cccc([N+](=O)[O-])c1,< 10,< 10,< 10,,,
NC(=O)c1ccc(Oc2ccc3ccccc3c2)cc1,< 10,16,< 10,,,
Cc1ccc(C(=O)Nc2cccc3c(Oc4cncc(C(N)=O)c4)cccc23)cc1[N+](=O)[O-],,,,100,0.978,
NC(=O)c1cncc(Oc2cccc3ccccc23)c1,,,,4.89,7.57,
O=C(Nc1cccc2cc(S(=O)(=O)O)ccc12)c1cccc([N+](=O)[O-])c1,13,22,< 10,,,
Cc1ccc(C(=O)Nc2cccc3cc(S(=O)(=O)O)ccc23)cc1N,14,13,< 10,,,
NC(=O)c1cncc(Oc2ccc3ccccc3c2)c1,,,,13.5,6.29,2.14
Cc1ccc(C(=O)Nc2cccc3cccc(S(=O)(=O)O)c23)cc1[N+](=O)[O-],26,< 10,< 10,,,
NC(=O)c1cccc(Oc2ccc3ccccc3c2)c1,47,84,49,,,
Cc1ccc(C(=O)Nc2cccc3cc(S(=O)(=O)O)ccc23)cc1,19,24,22,,,
NC(=O)c1ccc(Sc2cccc3ccccc23)nc1,40,47,42,,,
NC(=O)c1cncc(Nc2cccc3ccccc23)c1,,,,40.9,9.7,9
Nc1cccc(C(=O)Nc2ccc(S(=O)(=O)O)c3ccccc23)c1,< 10,< 10,< 10,,,
NC(=O)c1cncc(Oc2cccc3c(NC(=O)c4cccnc4)cccc23)c1,,,,70.7,0.558,
O=C(Nc1cccc2cccc(S(=O)(=O)O)c12)c1ccccc1,17,< 10,15,,,
Cc1ccc(C(=O)Nc2cccc3c(Oc4cncc(C(N)=O)c4)cccc23)cc1,,,,18.7,0.0774,
O=C(Nc1ccc(S(=O)(=O)O)c2ccccc12)c1ccccc1,< 10,10,25,,,
NC(=O)c1cccc(Nc2ccc3ccccc3c2)c1,< 10,65,< 10,,,
O=C(Nc1cccc2cc(S(=O)(=O)O)ccc12)c1ccccc1,< 10,< 10,21,,,
O=C(Nc1ccc(S(=O)(=O)O)c2ccccc12)c1cccc([N+](=O)[O-])c1,< 10,29,23,,,
NC(=O)c1cccc(Oc2cccc3ccccc23)c1,35,66,35,,,

Structure (SMILES),inhibition [1] [%],inhibition [2] [%],inhibition [3] [%],IC50 [4] [µM],IC50 [5] [µM],IC50 [6] [µM]
Cc1ccc(C(=O)Nc2cccc3cccc(S(=O)(=O)O)c23)cc1,< 10,< 10,10,,,
NC(=O)c1ccc(Nc2cccc3ccccc23)cc1,< 10,< 10,22,,,
NC(=O)c1cncc(Nc2ccc3ccccc3c2)c1,,,,33.6,4.3,
NC(=O)c1cncc(Oc2ccc3c(NC(=O)c4ccccc4)cccc3c2)c1,,,,22.4,0.436,
NC(=O)c1ccc(Nc2ccc3ccccc3c2)nc1,< 10,20,< 10,,,
NC(=O)c1ccc(Oc2cccc3ccccc23)nc1,< 10,33,39,,,
Cc1ccc(C(=O)Nc2cccc3cc(Oc4cncc(C(N)=O)c4)ccc23)cc1[N+](=O)[O-],,,,0.788,0.869,4.37
Cc1ccc(C(=O)Nc2ccc(S(=O)(=O)O)c3ccccc23)cc1N,11,13,< 10,,,
NC(=O)c1cncc(Oc2cccc3c(NC(=O)c4cccc([N+](=O)[O-])c4)cccc23)c1,,,,64,0.434,
Cc1ccc(C(=O)Nc2cccc3cccc(S(=O)(=O)O)c23)cc1N,12,< 10,16,,,
NC(=O)c1ccc(Sc2ccc3ccccc3c2)cc1,20,41,< 10,,,
Cc1ccc(C(=O)Nc2cccc3cc(Oc4cncc(C(N)=O)c4)ccc23)cc1,,,,3.82,0.489,
NC(=O)c1cncc(Sc2ccc3ccccc3c2)c1,,,,26.9,12.1,
NC(=O)c1ccc(Nc2cccc3ccccc23)nc1,19,41,38,,,
NC(=O)c1cncc(Oc2cccc3c(NC(=O)c4ccncc4)cccc23)c1,,,,15.4,0.955,
NC(=O)c1ccc(Nc2ccc3ccccc3c2)cc1,< 10,15,47,,,
NC(=O)c1ccc(Oc2cccc3ccccc23)cc1,< 10,27,10,,,
Cc1ccc(C(=O)Nc2ccc(S(=O)(=O)O)c3ccccc23)cc1[N+](=O)[O-],23,25,22,,,
Nc1cccc(C(=O)Nc2cccc3cc(S(=O)(=O)O)ccc23)c1,< 10,< 10,< 10,,,
NC(=O)c1ccc(Oc2ccc3ccccc3c2)nc1,31,61,44,,,
Cc1ccc(C(=O)Nc2cccc3cc(S(=O)(=O)O)ccc23)cc1[N+](=O)[O-],19,38,< 10,,,
Nc1cccc(C(=O)Nc2cccc3cccc(S(=O)(=O)O)c23)c1,12,< 10,< 10,,,
NC(=O)c1ccc(Sc2cccc3ccccc23)cc1,< 10,24,< 10,,,
NC(=O)c1cccc(Nc2cccc3ccccc23)c1,< 10,46,< 10,,,
NC(=O)c1cncc(Sc2cccc3ccccc23)c1,,,,30.3,9.8,
